Test results published in ChEMBL document CHEMBL5143624, “WCK 1152, WCK 1153: Discovery and structure activity relationship for the treatment of resistant pneumococcal and staphylococcal respiratory infections” (Bioorg Med Chem Lett, 2022).
Converted amounts (≈) assume the structure as drawn.

Experiments:
Staphylococcus aureus [1] = experiment: Antibacterial activity against methicillin resistant Staphylococcus aureus assessed as inhibition of bacterial growth incubated for 18 hrs by CLSI based serial agar dilution method; type: functional; conditions: Staphylococcus aureus, read-out: MIC
Streptococcus pneumoniae [2] = experiment: Antibacterial activity against Streptococcus pneumoniae assessed as inhibition of bacterial growth incubated for 18 hrs by CLSI based serial agar dilution method; type: functional; conditions: Streptococcus pneumoniae, 18 h, read-out: MIC
Streptococcus pneumoniae [3] = experiment: Antibacterial activity against fluoroquinolone efflux positive Streptococcus pneumoniae 706 assessed as inhibition of bacterial growth incubated for 18 hrs by CLSI based serial agar dilution method; type: functional
Streptococcus pneumoniae [4] = experiment: Antibacterial activity against Streptococcus pneumoniae 5844 harbouring moxifloxacin resistant DNA gyrase and topoisomerase IV mutant assessed as inhibition of bacterial growth incubated for 18 hrs by CLSI based serial agar dilution method; type: functional; conditions: Streptococcus pneumoniae, 5844, 18 h
Staphylococcus aureus [5] = experiment: Antibacterial activity against methicillin resistant Staphylococcus aureus 032 assessed as inhibition of bacterial growth incubated for 18 hrs by CLSI based serial agar dilution method; type: functional
Staphylococcus aureus [6] = experiment: Antibacterial activity against Staphylococcus aureus […] assessed as inhibition of bacterial growth incubated for 18 hrs by CLSI based serial agar dilution method; type: functional
Staphylococcus aureus [7] = experiment: Antibacterial activity against methicillin resistant Staphylococcus aureus 5076 harbouring DNA gyrase and topoisomerase IV mutant and efflux pump assessed as inhibition of bacterial growth incubated for 18 hrs in presence of efflux inhibitor by CLSI based serial agar dilution method; type: functional
Streptococcus pneumoniae [8] = experiment: Antibacterial activity against beta-lactams, macrolide and fluoroquinolone resistant Streptococcus pneumoniae 718 infected in po dosed Swiss mouse septicemia model assessed as protective dose administered on 1 and 5 hrs post infection and measured on day 7; type: functional, organism-based

For `CC1(C)CN(c2c(F)cc3c(=O)c(C(=O)O)cn(C4CC4)c3c2F)CCC1N` (configuration not stated), the MIC (Staphylococcus aureus [1]) was 3.12 µg/mL (≈ 7.97 µM) and the MIC (Streptococcus pneumoniae [2]) was 0.4 µg/mL (≈ 1.02 µM).

Compound `CCC1CN(c2c(F)cc3c(=O)c(C(=O)O)cn(C4CC4)c3c2OC)CCC1N` (configuration not stated) has an MIC (Staphylococcus aureus [1]) of 0.1 µg/mL (≈ 0.248 µM) and an MIC (Streptococcus pneumoniae [2]) of 0.8 µg/mL (≈ 1.98 µM).

Compound `COc1c(N2CC(C)C(N)C(C)(C)C2)c(F)cc2c(=O)c(C(=O)O)cn(C3CC3)c12` (configuration not stated) has an MIC (Staphylococcus aureus [1]) of 0.1 µg/mL (≈ 0.24 µM) and an MIC (Streptococcus pneumoniae [2]) of 0.2 µg/mL (≈ 0.479 µM).

Compound `CCNC1CCN(c2c(F)cc3c(=O)c(C(=O)O)cn(C4CC4)c3c2OC)CC1C` (configuration not stated) has an MIC (Staphylococcus aureus [1]) of 0.4 µg/mL (≈ 0.958 µM) and an MIC (Streptococcus pneumoniae [2]) of 1.56 µg/mL (≈ 3.74 µM).

Work on `COc1c(N2CCC(N)C(C)(C)C2)c(F)c(N)c2c(=O)c(C(=O)O)cn(C3CC3)c12` (configuration not stated) yielded an MIC (Staphylococcus aureus [1]) of 3.12 µg/mL (≈ 7.46 µM) and an MIC (Streptococcus pneumoniae [2]) of 0.2 µg/mL (≈ 0.478 µM).

For `CC1(C)CN(c2ccc3c(=O)c(C(=O)O)cn(-c4ccc(F)cc4F)c3n2)CCC1N` (configuration not stated), the MIC (Staphylococcus aureus [1]) was > 12.5 µg/mL and the MIC (Streptococcus pneumoniae [2]) was 1.56 µg/mL (≈ 3.64 µM).

With `CNC1CCN(c2c(F)cc3c(=O)c(C(=O)O)cn(C4CC4)c3c2OC)CC1(C)C` (configuration not stated) the MIC (Staphylococcus aureus [1]) was 0.2 µg/mL (≈ 0.479 µM), the MIC (Streptococcus pneumoniae [2]) was 1.56 µg/mL (≈ 3.74 µM) and the MIC (Streptococcus pneumoniae [3]) was 1.56 µg/mL (≈ 3.74 µM).

`Cc1c(F)c(N2CCC(N)C(C)(C)C2)cc2c1c(=O)c(C(=O)O)cn2C1CC1` (configuration not stated) was tested, and the MIC (Staphylococcus aureus [1]) was > 12.5 µg/mL and the MIC (Streptococcus pneumoniae [2]) was 0.8 µg/mL (≈ 2.06 µM).

`CCC1(C)CN(c2c(F)cc3c(=O)c(C(=O)O)cn(C4CC4)c3c2OC)CCC1NC` (configuration not stated) showed an MIC (Streptococcus pneumoniae [4]) of 6.25 µg/mL (≈ 14.5 µM) and an MIC (Streptococcus pneumoniae [3]) of 1.56 µg/mL (≈ 3.62 µM).

For `COc1c(N2CC[C@@H](N)C(C)(C)C2)c(F)c(N)c2c(=O)c(C(=O)O)cn(C3CC3)c12`, the MIC (Staphylococcus aureus [1]) was > 12.5 µg/mL and the MIC (Streptococcus pneumoniae [2]) was 6.25 µg/mL (≈ 14.9 µM).

Work on `COc1c(N2CCC(NC3CC3)C(C)C2)c(F)cc2c(=O)c(C(=O)O)cn(C3CC3)c12` (configuration not stated) yielded an MIC (Staphylococcus aureus [1]) of 0.4 µg/mL (≈ 0.931 µM) and an MIC (Streptococcus pneumoniae [2]) of 1.56 µg/mL (≈ 3.63 µM).

`Cc1c(F)c(N2CCC(N)C(C)(C)C2)nc2c1c(=O)c(C(=O)O)cn2-c1ccc(F)cc1F` (configuration not stated) was tested, and the MIC (Staphylococcus aureus [1]) was > 12.5 µg/mL and the MIC (Streptococcus pneumoniae [2]) was 1.56 µg/mL (≈ 3.39 µM).

With `CNC1C(C)CN(c2c(F)cc3c(=O)c(C(=O)O)cn(C4CC4)c3c2OC)CC1C` (configuration not stated) the MIC (Staphylococcus aureus [1]) was 0.1 µg/mL (≈ 0.24 µM) and the MIC (Streptococcus pneumoniae [2]) was 0.4 µg/mL (≈ 0.958 µM).

Compound `Cc1c(N2CCC(N)C(C)C2)c(F)cc2c(=O)c(C(=O)O)cn(C3CC3)c12.Cl` (configuration not stated) has an MIC (Staphylococcus aureus [5]) of 1.56 µg/mL.

With `CCC1(C)CN(c2c(F)cc3c(=O)c(C(=O)O)cn(C4CC4)c3c2OC)CCC1NC1CC1` (configuration not stated) the MIC (Streptococcus pneumoniae [4]) was > 6.25 µg/mL and the MIC (Streptococcus pneumoniae [3]) was 0.4 µg/mL (≈ 0.874 µM).

`COc1c(N2CC[C@@H](N)C(C)(C)C2)c(F)cc2c(=O)c(C(=O)O)cn(C3CC3)c12` was tested, and the MIC (Staphylococcus aureus [1]) was 0.05 µg/mL (≈ 0.124 µM), the MIC (Staphylococcus aureus [5]; Staphylococcus aureus, 032, 18 h, read-out: MIC) was 0.8 µg/mL (≈ 1.98 µM) and the MIC (Staphylococcus aureus [6]) was 0.05 µg/mL (≈ 0.124 µM). The MIC (Staphylococcus aureus [7]) was 1.56 µg/mL and the EC50 (Streptococcus pneumoniae [8]) was 20 mg/kg.

`COc1c(N2CC(C)C(N(C)C)C(C)C2)c(F)cc2c(=O)c(C(=O)O)cn(C3CC3)c12` (configuration not stated) showed an MIC (Staphylococcus aureus [1]) of 0.1 µg/mL (≈ 0.232 µM), an MIC (Streptococcus pneumoniae [2]) of 0.2 µg/mL (≈ 0.463 µM) and an MIC (Streptococcus pneumoniae [3]) of 0.2 µg/mL (≈ 0.463 µM).

Work on `CCN(CC)C1CCN(c2c(F)cc3c(=O)c(C(=O)O)cn(C4CC4)c3c2OC)CC1` yielded an MIC (Staphylococcus aureus [1]) of 0.2 µg/mL (≈ 0.463 µM) and an MIC (Streptococcus pneumoniae [2]) of 0.8 µg/mL (≈ 1.85 µM).

With `CCn1cc(C(=O)O)c(=O)c2cc(F)c(N3CCC(N)C(C)(C)C3)c(OC)c21` (configuration not stated) the MIC (Staphylococcus aureus [1]) was 6.25 µg/mL (≈ 16 µM) and the MIC (Streptococcus pneumoniae [2]) was 1.56 µg/mL (≈ 3.99 µM).

`COc1c(N2CCC(NC(C)=O)C(C)(C)C2)c(F)cc2c(=O)c(C(=O)O)cn(C3CC3)c12` (configuration not stated) showed an MIC (Staphylococcus aureus [1]) of 0.4 µg/mL (≈ 0.898 µM) and an MIC (Streptococcus pneumoniae [2]) of 1.56 µg/mL (≈ 3.5 µM).

In the case of `CCC1(CC)CN(c2c(F)cc3c(=O)c(C(=O)O)cn(C4CC4)c3c2OC)CCC1N` (configuration not stated), the MIC (Streptococcus pneumoniae [4]) is reported as 6.25 µg/mL (≈ 14.5 µM) and the MIC (Streptococcus pneumoniae [3]) is reported as < 0.4 µg/mL.

`Cc1c(F)c(N2CCC(N)C(C)(C)C2)c(F)c2c1c(=O)c(C(=O)O)cn2C1CC1` (configuration not stated) was tested, and the MIC (Staphylococcus aureus [1]) was 3.12 µg/mL (≈ 7.7 µM) and the MIC (Streptococcus pneumoniae [2]) was 0.1 µg/mL (≈ 0.247 µM).

With `CC1(C)CN(c2nc3c(cc2F)c(=O)c(C(=O)O)cn3C2CC2)CCC1N` (configuration not stated) the MIC (Staphylococcus aureus [1]) was > 12.5 µg/mL and the MIC (Streptococcus pneumoniae [2]) was 3.12 µg/mL (≈ 8.33 µM).

For `COc1c(N2CCC(NC3CC3)C(C)(C)C2)c(F)cc2c(=O)c(C(=O)O)cn(C3CC3)c12` (configuration not stated), the MIC (Staphylococcus aureus [1]) was 0.2 µg/mL (≈ 0.451 µM), the MIC (Streptococcus pneumoniae [2]) was 0.8 µg/mL (≈ 1.8 µM) and the MIC (Streptococcus pneumoniae [3]) was 0.8 µg/mL (≈ 1.8 µM).

In the case of `COc1c(N2CCC(N)C(C)(C)C2)c(F)c(N)c2c(=O)c(C(=O)O)cn(-c3ccc(F)cc3F)c12` (configuration not stated), the MIC (Staphylococcus aureus [1]) is reported as 12.5 µg/mL (≈ 25.5 µM) and the MIC (Streptococcus pneumoniae [2]) is reported as 3.12 µg/mL (≈ 6.36 µM).

Compound `CC1(C)CN(c2c(F)c(N)c3c(=O)c(C(=O)O)cn(C4CC4)c3c2F)CCC1N` (configuration not stated) has an MIC (Staphylococcus aureus [1]) of 3.12 µg/mL (≈ 7.68 µM) and an MIC (Streptococcus pneumoniae [2]) of 0.1 µg/mL (≈ 0.246 µM).

Work on `CCC1(C)CN(c2c(F)cc3c(=O)c(C(=O)O)cn(C4CC4)c3c2OC)CCC1N` (configuration not stated) yielded an MIC (Staphylococcus aureus [1]) of 0.1 µg/mL (≈ 0.24 µM), an MIC (Streptococcus pneumoniae [2]) of 0.2 µg/mL (≈ 0.479 µM) and an MIC (Streptococcus pneumoniae [4]) of 2.5 µg/mL (≈ 5.99 µM).

`CNC1CCN(c2c(F)cc3c(=O)c(C(=O)O)cn(C4CC4)c3c2OC)CC1C` (configuration not stated) gave an MIC (Staphylococcus aureus [1]) of 0.2 µg/mL (≈ 0.496 µM) and an MIC (Streptococcus pneumoniae [2]) of 1.56 µg/mL (≈ 3.87 µM).
